Data taken from PubChem BioAssay AID1959 (Broad Institute, 2009).
Calls of active or inactive are those of the source.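 Rule for the calls: active = growth-inhibition EC50 no more than tenfold above the top tested dose; inconclusive = flat fit between 30% and 70% inhibition, or unreliable fit; inactive = EC50 more than tenfold above the top tested dose.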

System: E. coli NEB5alpha growth, BacTiter-Glo luminescence, 4 h
Experiment: Escherichia coli growth inhibition, dose response, counter-screen for MEX-5/POS-1 RNA-binding inhibitor project, luminescence, NEB5alpha (AID 1959);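 note: pUC19-transformed ampicillin-resistant cells grown in LB with ampicillin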

Cc1ncc(CO)c(/C=N/NC(=O)c2cc(Br)ccc2O)c1O
EC50: > 11 µM (inactive)

COc1cc2c(cc1OC)-c1c(OC)c(OC)cc3ccnc(c13)C2=O
EC50: > 11 µM (inactive)

CC1(C)CC(=O)C2=C(C1)OC(N)=C(C#N)C2c1cccc(OC(=O)c2ccco2)c1 (stereo not drawn)
EC50: > 11 µM (inactive)

COc1cccc(NC(=O)c2ccccc2Br)c1
EC50: > 11 µM (inactive)

COc1ccc(N2C(=O)NC(=O)/C(=C/c3ccc4c(c3)Cc3ccccc3-4)C2=O)cc1
EC50: > 11 µM (inactive)

CCCN1CCCc2cc(CN)ccc21
EC50: > 11 µM (inactive)

Cc1c(C(=O)O)cccc1-n1c(C)cc(/C=N/NC(=O)c2cc3ccccc3o2)c1C
EC50: > 11 µM (inactive)

COc1ccc(C2C(C(=O)c3cccs3)=C(O)C(=O)N2c2nnc(C)s2)cc1OC (stereo not drawn)
EC50: > 11 µM (inactive)

CC(C)/C=C1\CC/C(=C\c2ccc(N(C)C)cc2)C1=O
EC50: > 11 µM (inactive)

CCC(=O)OC1(C)C(=O)C=C2C=C(C3CC3)OC=C2C1=O (stereo not drawn)
EC50: > 11 µM (inactive)

O=S(=O)(c1cccc(-c2csc(-c3cccnc3)n2)c1)N1CCOCC1
EC50: > 11 µM (inactive)

Cc1ccc(N/C=C2/Sc3ccccc3NC2=O)cc1
EC50: > 11 µM (inactive)

Cc1cc(/C=C2\C(=O)NC(=O)N(Cc3ccco3)C2=O)c(C)n1-c1ccc(C(=O)O)cc1
EC50: > 11 µM (inactive)

CSc1nnc(N2C(=O)C(O)=C(C(=O)c3ccco3)C2c2ccccc2)s1 (stereo not drawn)
EC50: > 11 µM (inactive)

Cc1ccc(C(=O)N/C(=C\c2ccc(-c3ccccc3[N+](=O)[O-])o2)C(=O)NCCCN(C)C)cc1
EC50: > 11 µM (inactive)

O=C(CC1Nc2ccccc2NC1=O)Nc1cc(Cl)cc(Cl)c1 (stereo not drawn)
EC50: > 11 µM (inactive)

CN1CCc2c(sc3c2C(=O)NC(c2ccccn2)N3)C1 (stereo not drawn)
EC50: > 11 µM (inactive)

Cn1cccc1/C=C1\C(=O)NC(=O)N(CCC2=CCCCC2)C1=O
EC50: > 11 µM (inactive)

Cc1ccc(/C=C2\Oc3c(ccc(O)c3CN3CCN(CCO)CC3)C2=O)cc1
EC50: > 11 µM (inactive)

Cc1cc(C(=O)N/N=C/c2cc(Cl)cc([N+](=O)[O-])c2O)n[nH]1
EC50: > 11 µM (inactive)

COc1ccccc1C(=O)Nc1ccnn1C1CCN(C(C)CSC)CC1 (stereo not drawn)
EC50: > 11 µM (inactive)

O=C(OCCc1ccccc1)c1cc(O)c(O)c(O)c1
EC50: > 11 µM (inactive)

O=C1OCc2cc(-n3cccc3)ccc21
EC50: > 11 µM (inactive)

N#C/C(=C(/O)c1cc2ccccc2o1)c1nc2ccccc2s1
EC50: > 11 µM (inactive)

CCOn1c(=O)c(-c2cc3ccccc3o2)[n+]([O-])c2ccccc21
EC50: > 11 µM (inactive)

Cc1ccc2nc3sc(C(=O)N4CCOCC4)c(N)c3cc2c1
EC50: > 11 µM (inactive)

CC1(CCl)N([O-])C2=C(CCCC2)[N+]1=O (stereo not drawn)
EC50: > 11 µM (inactive)

O=C(c1ccccc1)[C@@H]1[C@@H]2C(=O)N(c3ccc(F)cc3)C(=O)[C@@H]2C2CCCN21 (stereo partly drawn)
EC50: > 11 µM (inactive)

Fc1ccc(CNc2nc(-c3ccccc3)nc3ccccc23)cc1
EC50: > 11 µM (inactive)

CCCCCCn1c(O)c(C=NCCCn2ccnc2)c(=O)[nH]c1=O
EC50: > 11 µM (inactive)

CCc1ccc(/C=C2\Oc3c(ccc(O)c3CN3CCN(CCO)CC3)C2=O)cc1
EC50: > 11 µM (inactive)

O=C(c1cccs1)c1ccc(-c2cccs2)s1
EC50: > 11 µM (inactive)

Cc1nonc1OCCNCCNc1ccc([N+](=O)[O-])c2cccnc12
EC50: > 11 µM (inactive)

CC(=Nc1ccc(Br)cc1)c1sc2ccccc2c1O
EC50: > 11 µM (inactive)

C/C(=N\NC(=O)c1nnn(-c2nonc2N)c1-c1cccs1)c1cccc(O)c1
EC50: > 11 µM (inactive)

COc1ccc(CCC(=O)Nc2cccc(Cl)c2)cc1
EC50: > 11 µM (inactive)

Cc1ccc2oc(=O)c(/C=C(\O)c3cccs3)nc2c1
EC50: > 11 µM (inactive)

Cn1c(O)c(C=Nc2ccc(N3CCOCC3)cc2)c(=O)n(C)c1=S
EC50: > 11 µM (inactive)

CC(=O)Oc1cc2cccc(OC(C)=O)c(=O)c2c(OC(C)=O)c1OC(C)=O
EC50: > 11 µM (inactive)

O=C(NCc1ccccc1)C1Nc2ccc(OC(F)(F)F)cc2C2C=CCC12 (stereo not drawn)
EC50: > 11 µM (inactive)

COc1ccc(C2=CC3=C(Br)C(=O)C(C)(OC(=O)c4cccs4)C(=O)C3=CO2)cc1 (stereo not drawn)
EC50: > 11 µM (inactive)

O=C(NNc1ccccn1)C(=O)NNS(=O)(=O)c1ccc(F)cc1
EC50: > 11 µM (inactive)

Cc1ccc(Cn2c(=N)c(C(=O)NCC3CCCO3)cc3c(=O)n4ccccc4nc32)cc1 (stereo not drawn)
EC50: > 11 µM (inactive)

COc1cc2c(cc1C1C(C#N)=C(N)OC3=C1C(=O)CC(C)(C)C3)OCO2 (stereo not drawn)
EC50: > 11 µM (inactive)

O=C(/C=C/c1ccc([N+](=O)[O-])s1)N1CCCC1
EC50: > 11 µM (inactive)

COC(=O)c1ccccc1-n1c(CCC(=O)O)ccc1-c1ccccc1
EC50: > 11 µM (inactive)

O=C/C(=C\Nc1ccccn1)c1nc2ccccc2o1
EC50: > 11 µM (inactive)

Cc1ccc(NC(=O)COc2ccc(/C=C3/SC(=Nc4ccccc4)N(Cc4cccnc4)C3=O)cc2)cc1
EC50: > 11 µM (inactive)

CCC(=O)OC1(C)C(=O)C=C2C=C(c3ccsc3)OC=C2C1=O (stereo not drawn)
EC50: > 11 µM (inactive)

CCc1c(C)nc(SCC(=O)c2cccs2)c(C#N)c1C
EC50: > 11 µM (inactive)

O=c1[nH]c(=O)n(-c2cccc(F)c2)c(O)c1/C=C1\C=Nc2ccccc21
EC50: > 11 µM (inactive)

COc1ccc(C=C2C(=O)OC(C)(C)OC2=O)cc1OC
EC50: > 11 µM (inactive)

CN1C(=O)C(=Cc2ccc(SC3CCCCC3)o2)C(=O)N(C)C1=O
EC50: > 11 µM (inactive)

Cc1cc(/C=C2\C(=O)NC(=O)N(c3ccc(F)cc3)C2=O)c(C)n1-c1cccc(C(=O)O)c1
EC50: > 11 µM (inactive)

Nc1ccc2nc3c(=O)[nH]c(=S)[nH]c3nc2c1
EC50: > 11 µM (inactive)

O=C1c2cccc3c(O)ccc(c23)C(=O)N1c1ccc(Cl)cc1
EC50: > 11 µM (inactive)

COc1cccc(CN2C(=O)C3(C(C#N)=C(N)OC4=C3C(=O)CCC4)c3ccccc32)c1 (stereo not drawn)
EC50: > 11 µM (inactive)

O=C1C=CC(=O)C(C2=C3C(=O)N(CCc4ccccc4)CC(=O)N3CCC2)=C1
EC50: > 11 µM (inactive)

Cn1ncc(Cl)c1C(=O)N/N=C/c1cccc(OC2CSC2)c1
EC50: > 11 µM (inactive)

C(#Cc1ccc2c(c1)COc1c3ccccc3nn1-2)c1ccccc1
EC50: > 11 µM (inactive)

COC(=O)c1cc(-n2cccc2)ccc1N1CCOCC1
EC50: > 11 µM (inactive)

O=C(N/N=C/c1cc(Cl)cc([N+](=O)[O-])c1O)c1ccc2c(c1)OCO2
EC50: > 11 µM (inactive)

O=C(/C=C/c1ccco1)NC(=S)Nc1ccc(C(=O)O)cc1
EC50: > 11 µM (inactive)

Cc1cc(/C=c2/sc3nc4ccccc4n3c2=O)c(C)n1-c1ccccn1
EC50: > 11 µM (inactive)

NC(=O)c1snnc1-c1ccccc1
EC50: > 11 µM (inactive)

COc1cc(/C=C2/N=C(c3ccccc3)OC2=O)c(F)cc1OCc1ccccc1
EC50: > 11 µM (inactive)

Cc1cccn2c(=O)c3cc(C(=O)NC4CCCCC4)c(=N)n(Cc4ccccc4)c3nc12
EC50: > 11 µM (inactive)

Cc1cc(/C=C2/C(=O)NC(=O)N(Cc3ccco3)C2=O)c(C)n1-c1ccc(C(=O)O)cc1
EC50: > 11 µM (inactive)

COc1ccc(N/C=C\C(=O)c2ccc(C)cc2)cc1OC
EC50: > 11 µM (inactive)

Cc1ccc(-c2nnc(Nc3ccc(CC(N)=O)cc3)c3ccccc23)cc1S(N)(=O)=O
EC50: > 11 µM (inactive)

COCCCn1c(N)c(-c2nc3ccccc3n2C)c2nc3ccccc3nc21
EC50: > 11 µM (inactive)

N#CC1=C(N)OC2=C(C(=O)CCC2)C1c1cc2c(cc1Cl)OCO2 (stereo not drawn)
EC50: > 11 µM (inactive)

Cc1cccc(S(=O)(=O)C(C#N)c2nc3ccccc3nc2N2CCOCC2)c1 (stereo not drawn)
EC50: > 11 µM (inactive)

O=S(=O)(Nc1cc(Sc2cccc3cccnc23)c(O)c2ccccc12)c1ccc(F)cc1
EC50: > 11 µM (inactive)

Brc1cc2c(cc1C1Nc3ccccc3C3C=CCC31)OCO2 (stereo not drawn)
EC50: > 11 µM (inactive)

COc1ccc(/C=C/c2cc(C(F)(F)F)[nH]c(=O)n2)cc1OC
EC50: > 11 µM (inactive)

CC(=O)C1=C(c2cccc([N+](=O)[O-])c2)N(C(C)=O)n2c(C)nnc2S1
EC50: > 11 µM (inactive)

Cc1ccc(N=Nc2c(O)ccc3n[nH]nc23)cc1
EC50: > 11 µM (inactive)

CN(C)c1ccnc(Oc2ccc(Cl)cc2)c1C#N
EC50: > 11 µM (inactive)

O=C(CCl)NCCN1C(=O)S/C(=C\c2cccnc2)C1=O
EC50: > 11 µM (inactive)

CC(=O)C1=C(c2ccccc2)NC(=O)NC1c1ccc(O)c(O)c1 (stereo not drawn)
EC50: > 11 µM (inactive)

O=C1/C(=C/c2ccc(O)c(O)c2)SC(=S)N1Nc1ccccc1
EC50: > 11 µM (inactive)

N#CC1=C(N)OC2=C(C(=O)CCC2)C1c1ccc2c(c1)OCO2 (stereo not drawn)
EC50: > 11 µM (inactive)

O=C(O)Cc1ccc(O)c(O)c1
EC50: > 11 µM (inactive)

CN1CCc2cc3c(c4c2C1Cc1ccccc1-4)OCO3 (stereo not drawn)
EC50: > 11 µM (inactive)

Cc1nc(S/C(=C/c2ccc(-c3cccc(Cl)c3)o2)C(=O)O)n[nH]1
EC50: > 11 µM (inactive)

Fc1ccc(NCc2cccnc2)cc1F
EC50: > 11 µM (inactive)

Cc1cc(=O)n2[nH]c(=O)c(N=Nc3ccccc3)c2[nH]1
EC50: > 11 µM (inactive)

O=C(O)c1ccc(N/N=C/C2=C(N3CCOCC3)C(=C\c3ccccc3)/CC2)cc1
EC50: > 11 µM (inactive)

Cc1cc(C(=O)O)ccc1-n1c(C)cc(C=C2C(=O)c3ccccc3C2=O)c1C
EC50: > 11 µM (inactive)

O=C(N/N=C/c1cc(Cl)cc([N+](=O)[O-])c1O)C(O)(c1ccccc1)c1ccccc1
EC50: > 11 µM (inactive)

O=C(N/N=C/c1ccc(O)c(O)c1)N/N=C/c1ccc(O)c(O)c1
EC50: > 11 µM (inactive)

CCn1c(/C=C/c2c(C)[nH]c3ccccc23)nc2ccccc2c1=O
EC50: > 11 µM (inactive)

C=CCSc1nnc(N2C(=O)C(O)=C(C(=O)c3ccco3)C2c2ccc(F)cc2)s1 (stereo not drawn)
EC50: > 11 µM (inactive)

Nc1c(O)ccc2c1C(=O)c1ccccc1C2=O
EC50: > 11 µM (inactive)

CCOC(=O)c1ccc(-n2c(CCC(=O)O)ccc2-c2ccccc2)cc1
EC50: > 11 µM (inactive)

Oc1ccc(C2C[C@H]3CC[C@@H]2C3)cc1O (stereo partly drawn)
EC50: > 11 µM (inactive)

CC(C)(C)C(=O)c1sc2nc(-c3cccs3)cc(C(F)(F)F)c2c1N
EC50: > 11 µM (inactive)
